Structures are written as SMILES.

The target of this test is T1, Recombinant human His-tagged Trim24-PHD-bromodomain (Homo sapiens, UniProt O15164).
T1 construct: Recombinant human His-tagged Trim24-PHD-bromodomain (produced in-house); made in house
T1 sequence (O15164 824-1006 limits assumed): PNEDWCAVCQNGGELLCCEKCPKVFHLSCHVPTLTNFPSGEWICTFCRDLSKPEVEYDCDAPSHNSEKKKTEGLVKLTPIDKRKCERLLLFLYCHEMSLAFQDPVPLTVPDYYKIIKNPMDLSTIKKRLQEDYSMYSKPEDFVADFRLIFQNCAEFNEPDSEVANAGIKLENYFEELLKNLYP
Nature of the test: Trim24 AlphaScreen Assay. In kind it is binding. The note with it: 5 nM Trim24 protein, 15 nM biotinylated H3K23ac (1-33aa) peptide. In outline: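 AlphaScreen read-out after 2 h with streptavidin donor and Ni-chelate acceptor beads at 10 ug/mL each, following 1 h room-temperature incubation of compound, His-tagged PHD-bromodomain protein and biotin-H3K23ac (1-33aa) peptide in Hepes pH 7.5 buffer with NaCl and Triton X-100. Signals normalised between no-compound and no-protein wells; IC50 from four-parameter logistic curves.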
For orientation: IC50 means the concentration that gives 50% inhibition. Turning to `CCCOc1cc(OCCCOC)cc(Oc2cc3c(cc2NS(=O)(=O)c2ccc(OC)c(NC(C)=O)c2)n(C)c(=O)n3C)c1` [Example 159, N-(2-methoxy-5-(N-(6-(3-(3-methoxypropoxy)-5-propoxyphenoxy)-1,3-dimethyl-2-oxo-2,3-dihydro-1H-benzo[d]imidazol-5-yl)sulfamoyl)phenyl)acetamide], the IC50 lay in the range of 10 to 100 nM.
Take `CCCOc1cc(OCCCOC)cc(Oc2cc3c(cc2NS(=O)(=O)c2cccc(CC)c2)n(C)c(=O)n3C)c1` [Example 160, 3-ethyl-N-(6-(3-(3-methoxypropoxy)-5-propoxyphenoxy)-1,3-dimethyl-2-oxo-2,3-dihydro-1H-benzo[d]imidazol-5-yl)benzenesulfonamide]: the IC50 lay within 100 to 1000 nM.
To `CCCOc1cc(OCCCOC)cc(Oc2cc3c(cc2NS(=O)(=O)c2ccc(OCC)c(C)c2)n(C)c(=O)n3C)c1` [Example 161, 4-ehoxy-N-(6-(3-(3-methoxypropoxy)-5-propoxyphenoxy)-1,3-dimethyl-2-oxo-2,3-dihydro-benzo[d]imidazol-5-yl)-3-methylbenzenesulfonamide] belongs 100 to 1000 nM.
As for `CCCOc1cc(OCCCOC)cc(Oc2cc3c(cc2NS(=O)(=O)c2ccc4c(c2)COC4)n(C)c(=O)n3C)c1` [Example 162, N-(6-(3-(3-methoxypropoxy)-5-propoxyphenoxy)-1,3-dimethyl-2-oxo-2,3-dihydro-1H-benzo[d]imidazol-5-yl)-1,3-dihydroisobenzofuran-5-sulfonamide], the IC50 was 100 to 1000 nM.
For `CCCOc1cc(OCCCOC)cc(Oc2cc3c(cc2NS(=O)(=O)c2ccccc2)n(C)c(=O)n3C)c1` [Example 163, N-(6-(3-(3-methoxypropoxy)-5-propoxyphenoxy)-1,3-dimethyl-2-oxo-2,3-dihydro-1H-benzo[d]imidazol-5-yl)benzenesulfonamide] the value was 100 to 1000 nM; for `CCCOc1cc(OCCCOC)cc(Oc2cc3c(cc2NS(=O)(=O)c2cccc(C(C)C)c2)n(C)c(=O)n3C)c1` [Example 164, 3-isopropyl-N-(6-(3-(3-methoxypropoxy)-5-propoxyphenoxy)-1,3-dimethyl-2-oxo-2,3-dihydro-1H-benzo[d]imidazol-5-yl)benzenesulfonamide], 100 to 1000 nM; for `CCCOc1cc(OCCCOC)cc(Oc2cc3c(cc2NS(=O)(=O)c2cccc(C#N)c2)n(C)c(=O)n3C)c1` [Example 165, 3-cyano-N-(6-(3-(3-methoxypropoxy)-5-propoxyphenoxy)-1,3-dimethyl-2-oxo-2,3-dihydro-1H-benzo[d]imidazol-5-yl)benzenesulfonamide], 10 to 100 nM.
For `CCCOc1cc(OCCCOC)cc(Oc2cc3c(cc2NS(=O)(=O)c2cc(OC)cc(OC)c2)n(C)c(=O)n3C)c1` [Example 166, 3,5-dimethoxy-N-(6-(3-(3-methoxypropoxy)-5-propoxyphenoxy)-1,3-dimethyl-2-oxo-2,3-dihydro-1H-benzo[d]imidazol-5-yl)benzenesulfonamide] the value was 100 to 1000 nM; for `CCCOc1cc(OCCCOC)cc(Oc2cc3c(cc2NS(=O)(=O)c2ccc(OC(F)F)cc2)n(C)c(=O)n3C)c1` [Example 167, 4-(difluoromethoxy)-N-(6-(3-(3-methoxypropoxy)-5-propoxyphenoxy)-1,3-dimethyl-2-oxo-2,3-dihydro-1H-benzo[d]imidazol-5-yl)benzenesulfonamide], 100 to 1000 nM; for `CCCOc1cccc(Oc2cc3c(cc2NS(=O)(=O)c2ccccn2)n(C)c(=O)n3C)c1` [Example 168, N-(1,3-dimethyl-2-oxo-6-(3-propoxyphenoxy)-2,3-dihydro-1H-benzo[d]imidazol-5-yl)pyridine-2-sulfonamide], 10 to 100 nM.
With `CCCOc1cccc(Oc2cc3c(cc2NS(=O)(=O)c2cc(OC)cc(OC)c2)n(C)c(=O)n3C)c1` [Example 169, N-(1,3-dimethyl-2-oxo-6-(3-propoxyphenoxy)-2,3-dihydro-1H-benzo[d]imidazol-5-yl)-3,5-dimethoxybenzenesulfonamide], the IC50 is 100 to 1000 nM.
Regarding `CCCOc1cccc(Oc2cc3c(cc2NS(=O)(=O)c2cccc(OC)c2)n(C)c(=O)n3C)c1` [Example 170, N-(1,3-dimethyl-2-oxo-6-(3-propoxyphenoxy)-2,3-dihydro-1H-benzo[d]imidazol-5-yl)-3-methoxybenzenesulfonamide], the IC50 fell in the range of 100 to 1000 nM.
To `CCCOc1cccc(Oc2cc3c(cc2NS(=O)(=O)c2ccc(OC)cc2)n(C)c(=O)n3C)c1` [Example 171, N-(1,3-dimethyl-2-oxo-6-(3-propoxyphenoxy)-2,3-dihydro-1H-benzo[d]imidazol-5-yl)-4-methoxybenzenesulfonamide] belongs 100 to 1000 nM.
For `CCCOc1cccc(Oc2cc3c(cc2NS(=O)(=O)c2cccc4c2OCCO4)n(C)c(=O)n3C)c1` [Example 172, N-(1,3-dimethyl-2-oxo-6-(3-propoxyphenoxy)-2,3-dihydro-1H-benzo[d]imidazol-5-yl)-2,3-dihydrobenzo[b][1,4]dioxine-5-sulfonamide] the value was 100 to 1000 nM.
For `CCCOc1cccc(Oc2cc3c(cc2NS(=O)(=O)c2cccc(N(C)C)c2)n(C)c(=O)n3C)c1` [Example 173, N-(1,3-dimethyl-2-oxo-6-(3-propoxyphenoxy)-2,3-dihydro-1H-benzo[d]imidazol-5-yl)-3-(dimethylamino)benzenesulfonamide] the value was 100 to 1000 nM; for `CCCOc1cccc(Oc2cc3c(cc2NS(=O)(=O)c2ccc(OC)c(NC(C)=O)c2)n(C)c(=O)n3C)c1` [Example 174, N-(5-(N-(1,3-dimethyl-2-oxo-6-(3-propoxyphenoxy)-2,3-dihydro-1H-benzo[d]imidazol-5-yl)sulfamoyl)-methoxyphenyl)acetamide], 10 to 100 nM; for `CCCOc1cc(OCCCOC)cc(Oc2cc3c(cc2NS(=O)(=O)c2cccc4c2OCCO4)n(C)c(=O)n3C)c1` [Example 175, N-(6-(3-(3-methoxypropoxy)-5-propoxyphenoxy)-1,3-dimethyl-2-oxo-2,3-dihydro-1H-benzo[d]imidazol-5-yl)-2,3-dihydrobenzo[b][1,4]dioxine-5-sulfonamide], 100 to 1000 nM.
With `CCCOc1cc(OCCCOC)cc(Oc2cc3c(cc2NS(=O)(=O)c2cccc4[nH]c(=O)c(=O)[nH]c24)n(C)c(=O)n3C)c1` [Example 176, N-(6-(3-(3-methoxypropoxy)-5-propoxyphenoxy)-1,3-dimethyl-2-oxo-2,3-dihydro-1H-benzo[d]imidazol-5-yl)-2,3-dioxo-1,2,3,4-tetrahydroquinoxaline-5-sulfonamide], the IC50 lay in the range of 10 to 100 nM.
On to `CCCOc1cc(OCCCOC)cc(Oc2cc3c(cc2NS(=O)(=O)c2ccc(N(C)C)cc2)n(C)c(=O)n3C)c1` [Example 177, 4-(dimethylamino)-N-(6-(3-(3-methoxypropoxy)-5-propoxyphenoxy)-1,3-dimethyl-2-oxo-2,3-dihydro-benzo[d]imidazol-5-yl)benzenesulfonamide], for which the IC50 was in the range of 100 to 1000 nM.
As to `CCCOc1cc(OCCCCCCO)cc(Oc2cc3c(cc2NS(=O)(=O)c2cnn(C)c2C)n(C)c(=O)n3C)c1` [Example 178, N-(6-(3-((6-hydroxyhexyl)oxy)-5-propoxyphenoxy)-1,3-dimethyl-2-oxo-2,3-dihydro-1H-benzo[d]imidazol-5-yl)-1,5-dimethyl-1H-pyrazole-4-sulfonamide], the IC50 is 10 to 100 nM.
To `CCCOc1cc(OCCCCCCO)cc(Oc2cc3c(cc2NS(=O)(=O)c2ccc(OC)c(OC)c2)n(C)c(=O)n3C)c1` [Example 179, N-(6-(3-((6-hydroxyhexyl)oxy)-5-propoxyphenoxy)-1,3-dimethyl-2-oxo-2,3-dihydro-1H-benzo[d]imidazol-5-yl)-3,4-dimethoxybenzenesulfonamide] belongs 10 to 100 nM; to `CCCOc1cc(OCCCCCCO)cc(Oc2cc3c(cc2NS(=O)(=O)c2cccnc2)n(C)c(=O)n3C)c1` [Example 180, N-(6-(3-((6-hydroxyhexyl)oxy)-5-propoxyphenoxy)-1,3-dimethyl-2-oxo-2,3-dihydro-1H-benzo[d]imidazol-5-yl)pyridine-3-sulfonamide], 10 to 100 nM.
To `CCCOc1cc(OCCCCCCO)cc(Oc2cc3c(cc2NS(=O)(=O)c2cn(C)cn2)n(C)c(=O)n3C)c1` [Example 181, N-(6-(3-((6-hydroxyhexyl)oxy)-5-propoxyphenoxy)-1,3-dimethyl-2-oxo-2,3-dihydro-1H-benzo[d]imidazol-5-yl)-1-methyl-1H-imidazole-4-sulfonamide] belongs 10 to 100 nM.
For `CCCOc1cc(OCCCCCCN)cc(Oc2cc3c(cc2NS(=O)(=O)c2cn(C)c(C)n2)n(C)c(=O)n3C)c1` [Example 182, N-(6-(3-((6-aminohexyl)oxy)-5-propoxyphenoxy)-1,3-dimethyl-2-oxo-2,3-dihydro-1H-benzo[d]imidazol-5-yl)-1,2-dimethyl-1H-imidazole-4-sulfonamide] the value was 10 to 100 nM; for `CCCOc1cc(OCCCCCCN)cc(Oc2cc3c(cc2NS(=O)(=O)c2cccnc2)n(C)c(=O)n3C)c1` [Example 183, N-(6-(3-((6-aminohexyl)oxy)-5-propoxyphenoxy)-1,3-dimethyl-2-oxo-2,3-dihydro-1H-benzo[d]imidazol-5-yl)pyridine-3-sulfonamide], 1 to 10 nM.
`COc1ccc(S(=O)(=O)Nc2cc3c(cc2Oc2cccc(OCC(F)(F)F)c2)n(C)c(=O)n3C)cc1OC` [Example 184, N-(1,3-dimethyl-2-oxo-6-(3-(2,2,2-trifluoroethoxy)phenoxy)-2,3-dihydro-1H-benzo[d]imidazol-5-yl)-3,4-dimethoxybenzenesulfonamide]: the IC50 fell in the range of 10 to 100 nM.
For `CCCOc1cc(OCCCCCCO)cc(Oc2cc3c(cc2NS(=O)(=O)c2cccc(C(=O)OC)c2)n(C)c(=O)n3C)c1` [Example 185, methyl 3-(N-(6-(3-((6-hydroxynhexyl)oxy)-5-propoxyphenoxy)-1,3-dimethyl-2-oxo-2,3-dihydro-1H-benzo[d]imidazol-5-yl)sulfamoyl)benzoate] the value was 100 to 1000 nM.

Source of the values: patent US20160060260A1, “BROMODOMAIN INHIBITORS FOR TREATING DISEASE” (Board of Regents, The University of Texas System, priority 2014, published 2016).
